Laboratory results: the supplement of paper PMC11061612

Experiments:
[1] = test system: BICR22 (Oral Cavity Carcinoma); experiment: Bliss excess, mean over the matrix (fraction); higher = more synergy
Procedure, shortened: (§1)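 Cell lines in DMEM/F12 or RPMI with 10% FBS were plated in 1536-well plates, held 24 hours at 37°C, 5% CO2, then given two-drug dose matrices for 72 hours (DMSO typically 0.2%). Viability was read by CellTiter-Glo 2.0 luminescence and scaled as inhibition from 0 (vehicle wells) to 1 (blank wells). Combination Emax is the second-highest inhibition in the matrix; Bliss excess is observed combination effect minus expected EA + EB − EA·EB, EA and EB being single-agent effects.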

[2] = test system: CAPAN-2 (Pancreatic Carcinoma); experiment: as above
Procedure, shortened: as §1

[3] = test system: CCK-81 (Colorectal Carcinoma); experiment: as above
Procedure, shortened: as §1

[4] = test system: COLO-320-HSR (Colorectal Carcinoma); experiment: as above
Procedure, shortened: as §1

[5] = test system: ECC10 (Gastric Carcinoma); experiment: as above
Procedure, shortened: as §1

FU97 (Gastric Carcinoma) [6] = experiment: as above
Procedure, shortened: as §1

IGR-37 (Melanoma) [7] = experiment: as above
Procedure, shortened: as §1

[8] = test system: KARPAS-422 (B-Cell Non-Hodgkin's Lymphoma); experiment: as above
Procedure, shortened: as §1

[9] = test system: NCI-H1581 (Non-Small Cell Lung Carcinoma); experiment: as above
Procedure, shortened: as §1

[10] = test system: NCI-H1666 (Lung Adenocarcinoma); experiment: as above
Procedure, shortened: as §1

[11] = test system: NCI-H2066 (Squamous Cell Lung Carcinoma); experiment: as above
Procedure, shortened: as §1

[12] = test system: NCI-H64 (Small Cell Lung Carcinoma); experiment: as above
Procedure, shortened: as §1

NY (Osteosarcoma) [13] = experiment: as above
Procedure, shortened: as §1

[14] = test system: ONS-76 (Other Solid Carcinomas); experiment: as above
Procedure, shortened: as §1

[15] = test system: PANC-10-05 (Pancreatic Carcinoma); experiment: as above
Procedure, shortened: as §1

[16] = test system: TT (Thyroid Gland Carcinoma); experiment: as above
Procedure, shortened: as §1

U-2-OS (Osteosarcoma) [17] = experiment: as above
Procedure, shortened: as §1

[18] = test system: VCaP (Prostate Carcinoma); experiment: as above
Procedure, shortened: as §1

[19] = test system: BICR22 (Oral Cavity Carcinoma); experiment: combination Emax (second highest fraction inhibited in the dose matrix, 72 h); higher = more inhibition; extreme values may be limits of the assay
Procedure, shortened: as §1

[20] = test system: CAPAN-2 (Pancreatic Carcinoma); experiment: as above
Procedure, shortened: as §1

[21] = test system: CCK-81 (Colorectal Carcinoma); experiment: as above
Procedure, shortened: as §1

[22] = test system: COLO-320-HSR (Colorectal Carcinoma); experiment: as above
Procedure, shortened: as §1

[23] = test system: ECC10 (Gastric Carcinoma); experiment: as above
Procedure, shortened: as §1

FU97 (Gastric Carcinoma) [24] = experiment: as above
Procedure, shortened: as §1

IGR-37 (Melanoma) [25] = experiment: as above
Procedure, shortened: as §1

[26] = test system: KARPAS-422 (B-Cell Non-Hodgkin's Lymphoma); experiment: as above
Procedure, shortened: as §1

[27] = test system: NCI-H1581 (Non-Small Cell Lung Carcinoma); experiment: as above
Procedure, shortened: as §1

[28] = test system: NCI-H1666 (Lung Adenocarcinoma); experiment: as above
Procedure, shortened: as §1

[29] = test system: NCI-H2066 (Squamous Cell Lung Carcinoma); experiment: as above
Procedure, shortened: as §1

[30] = test system: NCI-H64 (Small Cell Lung Carcinoma); experiment: as above
Procedure, shortened: as §1

NY (Osteosarcoma) [31] = experiment: as above
Procedure, shortened: as §1

[32] = test system: ONS-76 (Other Solid Carcinomas); experiment: as above
Procedure, shortened: as §1

[33] = test system: PANC-10-05 (Pancreatic Carcinoma); experiment: as above
Procedure, shortened: as §1

[34] = test system: TT (Thyroid Gland Carcinoma); experiment: as above
Procedure, shortened: as §1

U-2-OS (Osteosarcoma) [35] = experiment: as above
Procedure, shortened: as §1

[36] = test system: VCaP (Prostate Carcinoma); experiment: as above
Procedure, shortened: as §1
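For Bliss excess, mean over the matrix in this document: after 72 h of two-drug dosing.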

Structure (SMILES)	Bliss excess [1]	Bliss excess [2]	Bliss excess [3]	Bliss excess [4]	Bliss excess [5]	Bliss excess (FU97 (Gastric Carcinoma) [6])	Bliss excess (IGR-37 (Melanoma) [7])	Bliss excess [8]	Bliss excess [9]	Bliss excess [10]	Bliss excess [11]	Bliss excess [12]	Bliss excess (NY (Osteosarcoma) [13])	Bliss excess [14]	Bliss excess [15]	Bliss excess [16]	Bliss excess (U-2-OS (Osteosarcoma) [17])	Bliss excess [18]	combination Emax [19]	combination Emax [20]	combination Emax [21]	combination Emax [22]	combination Emax [23]	combination Emax (FU97 (Gastric Carcinoma) [24])	combination Emax (IGR-37 (Melanoma) [25])	combination Emax [26]	combination Emax [27]	combination Emax [28]	combination Emax [29]	combination Emax [30]	combination Emax (NY (Osteosarcoma) [31])	combination Emax [32]	combination Emax [33]	combination Emax [34]	combination Emax (U-2-OS (Osteosarcoma) [35])	combination Emax [36]
C[C@@H](Oc1cc(-c2cnn(C3CCNCC3)c2)cnc1N)c1c(Cl)ccc(F)c1Cl [Crizotinib] + CC1=C(C(=CC=C1)Cl)NC(=O)C2=CN=C(S2)NC3=CC(=NC(=N3)C)N4CCN(CC4)CCO [Dasatinib] (first compound max 10 µM, 7x7, partner max 2 µM)	0.0433	0.0443	0.0191	-0.0425	-0.0263	-0.0237	-0.0317	0.0411	-0.0363	-0.0103	-0.0202	-0.0238	0.0882	0.0996	0.0003	-0.0751	0.0199	-0.0665	0.89	0.78	0.892	0.699	0.679	0.446	0.645	0.886	0.359	0.807	0.587	0.594	0.519	0.894	0.813	0.274	0.617	0.587
C[C@@H](Oc1cc(-c2cnn(C3CCNCC3)c2)cnc1N)c1c(Cl)ccc(F)c1Cl [Crizotinib] + Cn1cnc2c(F)c(Nc3ccc(Br)cc3Cl)c(C(=O)NOCCO)cc21 [Selumetinib] (first compound max 10 µM, 7x7, partner max 10 µM)	-0.0493	0.0244	-0.0256	-0.0696	-0.0116	-0.0414	0.0066	-0.063	0.0228	-0.0892	-0.0245	-0.012	-0.0158	-0.0482	0.006	0.0207	0.0015	-0.0622	0.281	0.639	0.794	0.614	0.858	0.319	0.922	0.723	0.519	0.503	0.513	0.56	0.279	0.65	0.643	0.479	0.831	0.652
CS(=O)(=O)CCNCc1ccc(-c2ccc3ncnc(Nc4ccc(OCc5cccc(F)c5)c(Cl)c4)c3c2)o1 [Lapatinib] + Cn1cnc2c(F)c(Nc3ccc(Br)cc3Cl)c(C(=O)NOCCO)cc21 [Selumetinib] (first compound max 10 µM, 7x7, partner max 10 µM)	0.128	0.0147	-0.0522	0.0181	-0.0082	-0.0116	-0.0934	0.0289	0.031	0.064	-0.0156	-0.0224	0.0033	-0.0123	0.0247	-0.0416	-0.0563	-0.0677	0.924	0.424	0.944	0.264	0.951	0.906	0.856	0.562	0.395	0.839	0.338	0.14	0.329	0.748	0.556	0.305	0.647	0.182
O=C(c1cc(Cc2n[nH]c(=O)c3ccccc23)ccc1F)N1CCN(C(=O)C2CC2)CC1 [Olaparib] + CC1(C)CCC(CN2CCN(c3ccc(C(=O)NS(=O)(=O)c4ccc(NCC5CCOCC5)c([N+](=O)[O-])c4)c(Oc4cnc5[nH]ccc5c4)c3)CC2)=C(c2ccc(Cl)cc2)C1 [Venetoclax] (first compound max 10 µM, 7x7, partner max 1 µM)	-0.0428	-0.0398	-0.0382	0.0038	0.0155	-0.0322	0.0143	0.0071	-0.0035	-0.0661	-0.0521	0.0167	0.0029	-0.014	-0.059	-0.0158	-0.0331	-0.0434	0.0823	0.0502	0.148	0.176	0.706	0.104	0.3	0.611	0.234	0.104	0.136	0.166	0.188	0.17	0.125	0.208	0.109	0.101
O=C(c1cc(Cc2n[nH]c(=O)c3ccccc23)ccc1F)N1CCN(C(=O)C2CC2)CC1 [Olaparib] + CN(CC[C@H](CSC1=CC=CC=C1)NC2=C(C=C(C=C2)S(=O)(=O)NC(=O)C3=CC=C(C=C3)N4CCC(CC4)[C@H](C5=CC=CC=C5C6=CC=C(C=C6)Cl)O)S(=O)(=O)C(F)(F)F)CCO [AZD4320] (first compound max 10 µM, 7x7, partner max 1 µM)	0.0041	-0.0461	-0.0283	0.016	0.0135	-0.0426	0.0028	-0.0348	0.0118	-0.0702	-0.097	-0.0325	0.0263	-0.0216	-0.0548	0.0271	-0.0213	-0.0444	0.255	0.462	0.124	0.19	1	0.212	0.275	0.925	0.3	0.124	0.351	0.95	0.195	0.181	0.164	0.538	0.202	0.128
O=C(c1cc(Cc2n[nH]c(=O)c3ccccc23)ccc1F)N1CCN(C(=O)C2CC2)CC1 [Olaparib] + COc1nnc2ccc(N3CCC(c4ccc(OCCN5CCN(C)C(=O)[C@H]5C)cc4)CC3)nn12 [AZD5153] (first compound max 10 µM, 7x7, partner max 1 µM)	-0.0477	-0.0267	-0.0643	-0.0311	-0.0196	-0.0372	-0.0984	-0.0132	0.0078	-0.0544	-0.0865	-0.0338	-0.0877	-0.0463	-0.0072	-0.0615	-0.0312	-0.082	0.0626	0.186	0.756	0.373	0.786	0.762	0.58	0.66	0.506	0.409	0.286	0.239	0.473	0.474	0.401	0.48	0.285	0.707
O=C(c1cc(Cc2n[nH]c(=O)c3ccccc23)ccc1F)N1CCN(C(=O)C2CC2)CC1 [Olaparib] + Cc1c2c(nn1C)CSCc1cc(n(C)n1)CSc1cc(c3ccccc3c1)OCCCc1c(C(=O)O)n(C)c3c-2c(Cl)ccc13 [AZD5991] (first compound max 10 µM, 7x7, partner max 1 µM)	-0.0317	-0.0426	-0.0311	-0.0304	0.0111	-0.0169	-0.0419	-0.0071	0.0183	-0.0669	-0.0539	0.0017	-0.0239	-0.038	-0.0739	-0.0273	-0.0394	-0.0247	0.108	0.044	0.785	0.836	0.738	0.207	0.151	0.967	0.972	0.111	0.2	0.148	0.426	0.17	0.159	0.168	0.0686	0.958
N#Cc1cnc(Nc2cc(NC[C@H]3CNCCO3)c(C(F)(F)F)cn2)cn1 [SRA737] + C=CCn1c(=O)c2cnc(Nc3ccc(N4CCN(C)CC4)cc3)nc2n1-c1cccc(C(C)(C)O)n1 [AZD1775] (first compound max 10 µM, partner max 1 µM)	0.177	-0.0431	0.0173	0.116	0.0773	0.0097	0.0182	0.0952	0.0425	-0.0345	0.0147	0.0534	0.0355	0.11	-0.101	0.0428	0.0962	0.0327	0.836	0.306	0.916	0.706	0.823	0.366	0.789	0.817	0.67	0.253	0.426	0.865	0.673	0.824	0.42	0.352	0.877	0.66
